According to ChEMBL document CHEMBL5500336, “Recent advances in developing modified C14 side chain pleuromutilins as novel antibacterial agents” (Eur J Med Chem, 2024):
In brackets after ≈: the same amount, converted by molar mass.

Legend:
Staphylococcus aureus [1] = assay: Antibacterial activity against Methicillin-resistant Staphylococcus aureus assessed as bacterial growth inhibition; assay type: functional
[2] = system: Staphylococcus epidermidis; assay: Antibacterial activity against […] Staphylococcus epidermidis ATCC 35984 after 16 to 18 hrs by CLSI protocol based broth microdilution assay; assay type: functional; conditions: time 16-18 hrs
Staphylococcus aureus [3] = assay: Antibacterial activity against Methicillin-sensitive Staphylococcus aureus assessed as bacterial growth inhibition; assay type: functional
[4] = system: Staphylococcus epidermidis; assay: Antibacterial activity against methicillin-sensitive Staphylococcus epidermidis ATCC 12228 assessed as reduction in bacterial growth incubated for 18 hrs by agar dilution method; assay type: functional
[5] = system: Staphylococcus epidermidis; assay: Antibacterial activity against […] Staphylococcus epidermidis ATCC 51625 assessed as inhibition of bacterial growth measured after 24 hrs by MH broth based assay; assay type: functional
Staphylococcus aureus [6] = assay: Antibacterial activity against […] Staphylococcus aureus BNCC 337371 assessed as bacterial growth inhibition incubated for 18 to 24 hrs by NCCLS based assay; assay type: functional; conditions: time 18-24 hrs
Staphylococcus aureus [7] = assay: Antibacterial activity against […] Staphylococcus aureus ATCC 25923 assessed as reduction in bacterial growth measured after 24 hrs by MH broth based assay; assay type: functional
Staphylococcus aureus [8] = assay: Antimicrobial activity against […] Staphylococcus aureus ATCC 33591 assessed as inhibition of microbial growth measured after 20 to 24 hrs incubation by CLSI method; assay type: functional; conditions: time 20-24 hrs
Staphylococcus aureus [9] = assay: Antimicrobial activity against […] Staphylococcus aureus ATCC 43300 assessed as inhibition of microbial growth measured after 20 to 24 hrs incubation by CLSI method; assay type: functional; conditions: time 20-24 hrs
Escherichia coli = assay: Antibacterial activity against Escherichia coli ATCC 25922 assessed as bacterial growth inhibition measured after 18 hrs by CLSI based method; assay type: functional
Staphylococcus aureus [10] = assay: Antibacterial activity against […] Staphylococcus aureus ATCC 43300 assessed as reduction in microbial growth after 16 hrs by broth microdilution method; assay type: functional
Staphylococcus aureus [11] = assay: Antibacterial activity against […] Staphylococcus aureus ATCC 33592 assessed as bacterial growth inhibition; assay type: functional
Streptococcus pneumoniae = assay: Antibacterial activity against Streptococcus pneumoniae B1 assessed as reduction in bacterial growth; assay type: functional
Staphylococcus aureus [12] = assay: Antibacterial activity against […] Staphylococcus aureus ATCC 43300 assessed as inhibition of bacterial growth; assay type: functional
Staphylococcus aureus [13] = assay: Antibacterial activity against […] Staphylococcus aureus ATCC 43300 assessed as inhibition of bacterial growth measured after 24 hrs by MH broth based assay; assay type: functional
Staphylococcus aureus [14] = assay: Antibacterial activity against methicillin-sensitive Staphylococcus aureus assessed as reduction in microbial growth; assay type: functional
Staphylococcus aureus [15] = assay: Antibacterial activity against […] Staphylococcus aureus ATCC 43300 assessed as reduction in bacterial growth by CLSI protocol based broth microdilution method; assay type: functional
Staphylococcus aureus [16] = assay: Antimicrobial activity against […] Staphylococcus aureus ATCC 33591 assessed as reduction in microbial growth incubated for 24 hrs by CLSI protocol based analysis; assay type: functional
Staphylococcus aureus [17] = assay: Antimicrobial activity against methicillin-Staphylococcus aureus 29213 assessed as inhibition of microbial growth incubated for 24 hrs by broth-microdilution assay; assay type: functional
[18] = Cytotoxicity against mouse RAW264.7 cells assessed as reduction in cell viability incubated for 48 hrs by MTT assay; assay type: toxicity, cell-based
Staphylococcus aureus [19] = assay: Antibacterial activity against Staphylococcus aureus ATCC 25923 assessed as reduction in bacterial growth incubated for 24 hrs by serial dilution method; assay type: functional
Staphylococcus = assay: Antimicrobial activity against methicillin-resistant coagulase negative Staphylococcus P1369 at 1 nmol relative to control; assay type: functional

## C=C[C@]1(C)C[C@@H](OC(=O)CSCc2csc(N)n2)[C@]2(C)[C@H](C)CC[C@]3(CCC(=O)[C@H]32)[C@@H](C)[C@@H]1O
Staphylococcus aureus [1]
  MIC: 0.063 µg/mL (≈ 0.124 µM)
[2]
  MIC: 0.063 µg/mL (≈ 0.124 µM)
Staphylococcus aureus [3]
  MIC: 0.063 µg/mL (≈ 0.124 µM)
[4]
  MIC: 0.063 µg/mL (≈ 0.124 µM)

## C=C[C@]1(C)C[C@@H](OC(=O)CSCc2csc(NC(=O)CN3CCCCC3)n2)[C@]2(C)[C@H](C)CC[C@]3(CCC(=O)[C@H]32)[C@@H](C)[C@@H]1O
Staphylococcus aureus [1]
  MIC: 0.063 µg/mL (≈ 0.0997 µM)
[2]
  MIC: 0.063 µg/mL (≈ 0.0997 µM)
Staphylococcus aureus [3]
  MIC: 0.063 µg/mL (≈ 0.0997 µM)
[4]
  MIC: 0.063 µg/mL (≈ 0.0997 µM)

## C=C[C@]1(C)C[C@@H](OC(=O)CSC2=NC(C)=C(C(=O)OCC)C(C)N2)[C@]2(C)[C@H](C)CC[C@]3(CCC(=O)[C@H]32)[C@@H](C)[C@@H]1O (some centres undefined)
[5]
  MIC: 0.06 µg/mL (≈ 0.104 µM)
Staphylococcus aureus [6]
  MIC: 0.06 µg/mL (≈ 0.104 µM)
Staphylococcus aureus [7]
  MIC: 0.125 µg/mL (≈ 0.217 µM)

## C=C[C@]1(C)C[C@@H](OC(=O)CSC2=NC(C)=C(C(=O)OC)C(C)N2)[C@]2(C)[C@H](C)CC[C@]3(CCC(=O)[C@H]32)[C@@H](C)[C@@H]1O (some centres undefined)
[5]
  MIC: 0.125 µg/mL (≈ 0.223 µM)
Staphylococcus aureus [6]
  MIC: 0.25 µg/mL (≈ 0.446 µM)
Staphylococcus aureus [7]
  MIC: 0.25 µg/mL (≈ 0.446 µM)

## C=C[C@]1(C)C[C@@H](OC(=O)CSC2=NC(C)=C(C(C)=O)C(C)N2)[C@]2(C)[C@H](C)CC[C@]3(CCC(=O)[C@H]32)[C@@H](C)[C@@H]1O (some centres undefined)
[5]
  MIC: 0.25 µg/mL (≈ 0.459 µM)
Staphylococcus aureus [6]
  MIC: 0.125 µg/mL (≈ 0.229 µM)
Staphylococcus aureus [7]
  MIC: 0.25 µg/mL (≈ 0.459 µM)

## C=C[C@]1(C)C[C@@H](OC(=O)CSc2nc(C)c(C(=O)OC)c(C)n2)[C@]2(C)[C@H](C)CC[C@]3(CCC(=O)[C@H]32)[C@@H](C)[C@@H]1O
[5]
  MIC: 0.03 µg/mL (≈ 0.0537 µM)
Staphylococcus aureus [6]
  MIC: 0.015 µg/mL (≈ 0.0268 µM)
Staphylococcus aureus [7]
  MIC: 0.016 µg/mL (≈ 0.0286 µM)

## C=C[C@]1(C)C[C@@H](OC(=O)CSc2nc(C)c(C(=O)OCC)c(C)n2)[C@]2(C)[C@H](C)CC[C@]3(CCC(=O)[C@H]32)[C@@H](C)[C@@H]1O
[5]
  MIC: 0.015 µg/mL (≈ 0.0262 µM)
Staphylococcus aureus [6]
  MIC: 0.015 µg/mL (≈ 0.0262 µM)
Staphylococcus aureus [7]
  MIC: ≤ 0.016 µg/mL

## C=C[C@]1(C)C[C@@H](OC(=O)CSc2nc(C)c(C(C)=O)c(C)n2)[C@]2(C)[C@H](C)CC[C@]3(CCC(=O)[C@H]32)[C@@H](C)[C@@H]1O
[5]
  MIC: 0.03 µg/mL (≈ 0.0553 µM)
Staphylococcus aureus [6]
  MIC: 0.015 µg/mL (≈ 0.0276 µM)
Staphylococcus aureus [7]
  MIC: 0.016 µg/mL (≈ 0.0295 µM)

## C=C[C@]1(C)C[C@@H](OC(=O)CN2CCN(c3ccc(C4CC(c5ccccc5[N+](=O)[O-])=NN4)cc3)CC2)[C@]2(C)[C@H](C)CC[C@]3(CCC(=O)[C@H]32)[C@@H](C)[C@@H]1O (some centres undefined)
Staphylococcus aureus [8]
  MIC: 2 µg/mL
Staphylococcus aureus [9]
  MIC: 2 µg/mL
Escherichia coli
  MIC: 2 µg/mL (≈ 2.81 µM)

## C=C[C@]1(C)C[C@@H](OC(=O)CN2CCN(c3ccc(C(=O)/C=C/c4ccc([N+](=O)[O-])cc4)cc3)CC2)[C@]2(C)[C@H](C)CC[C@]3(CCC(=O)[C@H]32)[C@@H](C)[C@@H]1O
Staphylococcus aureus [8]
  MIC: 0.5 µg/mL
Staphylococcus aureus [9]
  MIC: 0.5 µg/mL

## C=C[C@]1(C)C[C@@H](OC(=O)CN2CCN(c3ccc(C(=O)/C=C/c4ccc(N)cc4)cc3)CC2)[C@]2(C)[C@H](C)CC[C@]3(CCC(=O)[C@H]32)[C@@H](C)[C@@H]1O
Staphylococcus aureus [8]
  MIC: 0.5 µg/mL
Staphylococcus aureus [9]
  MIC: 0.5 µg/mL

## C=C[C@]1(C)C[C@@H](OC(=O)CSc2ccccc2N)[C@]2(C)[C@H](C)CC[C@]3(CCC(=O)[C@H]32)[C@@H](C)[C@@H]1O
Staphylococcus aureus [10]
  MIC: 0.016 µg/mL
Staphylococcus aureus [11]
  MIC: 0.5 µg/mL (≈ 1.03 µM)
Streptococcus pneumoniae
  MIC: 0.016 µg/mL (≈ 0.0329 µM)

## C=C[C@]1(C)C[C@@H](OC(=O)CSc2ccc(NC(=O)c3ccco3)cc2)[C@]2(C)[C@H](C)CC[C@]3(CCC(=O)[C@H]32)[C@@H](C)[C@@H]1O
Staphylococcus aureus [12]
  MIC: 0.015 µg/mL (≈ 0.0259 µM)
Staphylococcus aureus [13]
  MBC: 0.03 µg/mL (≈ 0.0517 µM)

## C=C[C@]1(C)C[C@@H](OC(=O)CSc2cccc(NC(=O)Nc3ccc(C#N)cc3)c2)[C@]2(C)[C@H](C)CC[C@]3(CCC(=O)[C@H]32)[C@@H](C)[C@@H]1O
Staphylococcus aureus [14]
  MIC: 0.06 µg/mL

## C=C[C@]1(C)C[C@@H](OC(=O)CSCc2csc(NC(=O)CN3CCC[C@@H]3CO)n2)[C@]2(C)[C@H](C)CC[C@]3(CCC(=O)[C@H]32)[C@@H](C)[C@@H]1O
Staphylococcus aureus [1]
  MIC: 0.063 µg/mL (≈ 0.0972 µM)
Staphylococcus aureus [15]
  MIC: 0.063 µg/mL (≈ 0.0972 µM)
[2]
  MIC: 0.063 µg/mL (≈ 0.0972 µM)
Staphylococcus aureus [3]
  MIC: 0.063 µg/mL (≈ 0.0972 µM)
[4]
  MIC: 0.063 µg/mL (≈ 0.0972 µM)

## C=C[C@]1(C)C[C@@H](OC(=O)CSc2ccccc2NC(=O)c2cccc(F)c2)[C@]2(C)[C@H](C)CC[C@]3(CCC(=O)[C@H]32)[C@@H](C)[C@@H]1O
Staphylococcus aureus [10]
  MIC: 0.125 µg/mL

## C=C[C@]1(C)C[C@@H](OC(=O)CSc2ccc(NC(=O)c3cccc(F)c3)cc2)[C@]2(C)[C@H](C)CC[C@]3(CCC(=O)[C@H]32)[C@@H](C)[C@@H]1O
Staphylococcus aureus [12]
  MIC: 0.03 µg/mL (≈ 0.0494 µM)
Staphylococcus aureus [13]
  MBC: 0.03 µg/mL (≈ 0.0494 µM)

## C=C[C@]1(C)C[C@@H](OC(=O)CSc2nc3c(F)cccc3o2)[C@]2(C)[C@H](C)CC[C@]3(CCC(=O)[C@H]32)[C@@H](C)[C@@H]1O
Staphylococcus aureus [16]
  MIC: 0.125 µg/mL

## C=C[C@]1(C)C[C@@H](OC(=O)CSc2ccc(NC(=O)c3ccc(C#N)cc3)cc2)[C@]2(C)[C@H](C)CC[C@]3(CCC(=O)[C@H]32)[C@@H](C)[C@@H]1O
Staphylococcus aureus [12]
  MIC: 0.015 µg/mL (≈ 0.0244 µM)
Staphylococcus aureus [13]
  MBC: 0.03 µg/mL (≈ 0.0488 µM)

## C=C[C@]1(C)C[C@@H](OC(=O)CSc2ccc(NC(=O)c3ccccc3F)cc2)[C@]2(C)[C@H](C)CC[C@]3(CCC(=O)[C@H]32)[C@@H](C)[C@@H]1O
Staphylococcus aureus [12]
  MIC: 0.03 µg/mL (≈ 0.0494 µM)
Staphylococcus aureus [13]
  MBC: 0.062 µg/mL (≈ 0.102 µM)

## C=C[C@]1(C)C[C@@H](OC(=O)CSc2nnc(-c3cccs3)o2)[C@]2(C)[C@H](C)CC[C@]3(CCC(=O)[C@H]32)[C@@H](C)[C@@H]1O
Staphylococcus aureus [17]
  MIC: 0.125 µg/mL
[18]
  IC50 at 48 h: 17.9 µg/mL (≈ 32.8 µM)

## C=C[C@]1(C)C[C@@H](OC(=O)CSc2ccc(NC(=O)c3ccc(F)cc3)cc2)[C@]2(C)[C@H](C)CC[C@]3(CCC(=O)[C@H]32)[C@@H](C)[C@@H]1O
Staphylococcus aureus [12]
  MIC: 0.03 µg/mL (≈ 0.0494 µM)
Staphylococcus aureus [13]
  MBC: 0.03 µg/mL (≈ 0.0494 µM)

## C=C[C@]1(C)C[C@@H](OC(=O)CN2CCN(C(=O)CNC[C@H]3CN(c4ccc(Cl)cc4)C(=O)O3)CC2)[C@]2(C)[C@H](C)CC[C@]3(CCC(=O)[C@H]32)[C@@H](C)[C@@H]1O
Staphylococcus aureus [19]
  MIC: 0.008 µg/mL (≈ 0.0112 µM)

## C=C[C@]1(C)C[C@@H](OC(=O)CSc2ccccc2NC(=O)c2ccccc2C)[C@]2(C)[C@H](C)CC[C@]3(CCC(=O)[C@H]32)[C@@H](C)[C@@H]1O
Staphylococcus aureus [10]
  MIC: 0.25 µg/mL

## C=C[C@]1(C)C[C@@H](OC(=O)CSc2ccc(NC(=O)c3cccs3)cc2)[C@]2(C)[C@H](C)CC[C@]3(CCC(=O)[C@H]32)[C@@H](C)[C@@H]1O
Staphylococcus aureus [12]
  MIC: 0.03 µg/mL (≈ 0.0504 µM)
Staphylococcus aureus [13]
  MBC: 0.03 µg/mL (≈ 0.0504 µM)

## C=C[C@]1(C)C[C@@H](OC(=O)CN2CCN(c3ccc(C4CC(N)=NC=C4c4ccccc4[N+](=O)[O-])cc3)CC2)[C@]2(C)[C@H](C)CC[C@]3(CCC(=O)[C@H]32)[C@@H](C)[C@@H]1O (some centres undefined)
Staphylococcus aureus [8]
  MIC: 1 µg/mL
Staphylococcus aureus [9]
  MIC: 1 µg/mL
Escherichia coli
  MIC: 8 µg/mL (≈ 10.8 µM)

## C=C[C@]1(C)C[C@@H](OC(=O)CS[C@@H]2CC[C@@H](N)C[C@H]2O)[C@]2(C)[C@H](C)CC[C@]3(CCC(=O)[C@H]32)[C@@H](C)[C@@H]1O [LEFAMULIN]
Staphylococcus
  Activity: 3.4%
